Test results reported in US20230285516A1 (priority 2020, published 2023).
Like-named read-outs stand apart in the source and are kept apart here.

Columns and labels:
SARS-CoV2 (Covid-19) [1] = tested on: SARS-CoV2 (Covid-19)
IL-23 = IL-23 gene expression in co-cultured tissues (RT-PCR); format: cell-based, human; details: co-cultures from patients with RA, vs control
Text: (§1) FIG. 7. Effect of type I polymerized collagen on the gene expression of pro- and anti-inflammatory cytokines and factors in the tissues of cartilage and synovial tissue co-cultures of patients with rheumatoid arthritis (RA). (A) Quantification of TNF-α, IL-6 and IL-10 gene expression and (B) Quantification of IL-23 and Foxp3 gene expression by RT-PCR in synovial membrane tissues and cartilage co-cultured for 7 days. The bars show the mean±SD of the transcript levels of the samples normalized through the expression of the housekeeping gene GADPH determined by 2ΔΔCt. The data represent the mean±SD of 9 cartilage and synovial co-cultures from RA patients. Each culture was performed in triplicate for each condition. Basal: tissue in basal conditions.

SARS-CoV2 (Covid-19) [2] = tested on: SARS-CoV2 (Covid-19); remark: listed apart in the source
Th2 (CD4+/IL-4+) cells = assay: FACS of spleen Th2 cells in CIA models; format: in vivo, mice; details: early arthritis model, first sacrifice only
Description: (§2) Early Arthritis Model. Fifty mice with the same characteristics were immunized at the base of the tail with 100 μg of chicken type II collagen emulsified in complete Freund's adjuvant. The boost was applied on day 21 at the base of the tail with 100 μg of type II collagen emulsified with Freund's incomplete adjuvant. On the same boosting day, the treatments (a-d) were applied every week for six weeks. Three animals were euthanized in the sixth week and three in the thirteenth week. The spleen, lymph nodes, joint tissue, liver, lungs, kidneys and heart were obtained in order to assess the inflammatory infiltrate, the predominant cell populations and the expression of pro- and anti-inflammatory cytokines.
(§3) Established Arthritis Model. Arthritis was induced as in the previous model in 50 mice and the treatments were applied intramuscularly, after 2 weeks of the boost, every week for 6 weeks. Three animals were euthanized in the eighth week and three in the fifteenth week. The spleen, lymph nodes, joint tissue, liver, lungs, kidneys and heart were obtained in order to assess the inflammatory infiltrate, the predominant cell populations and the expression of pro- and anti-inflammatory cytokines. […]
(§4) FIG. 10. […] The intracellular production of IL-17A, IL-4, IFN-γ and Foxp3 by CD4+ T cells was detected by flow cytometry. The results are representative of 6 mice analyzed in each group. […]

Th17 (CD4+/IL-17+) cells = assay: FACS of spleen Th17 cells in CIA models; format: in vivo, mice; details: CIA model, fold
Description: as §2, §3, §4

NF-κB = assay: Ex vivo NF-κBp65 and IκBα expression in splenocytes, CIA models; parameters: species or system mice; details: early and long-standing arthritis
Description: We infer that the mechanism of action of type I polymerized collagen could be given through the regulation of the transcription factor NF-κB and AP-1. In particular, NF-κB regulates the expression of pro-inflammatory enzymes, cytokines, chemokines, immunoreceptors, and cell adhesion molecules, as well as apoptosis. In the light of this knowledge, the expression of NF-κBp65 and its inhibitor IκBα in splenocytes were analyzed ex vivo (FIG. 12).
FIG. 12. Effect of type I polymerized collagen in the early (preventive) and long-standing (late or palliative) arthritis model on ex vivo NF-κB and IκB-α expression in splenocytes. (A) Spleen cells from early arthritis model mice at first sacrifice. (B) Splenocytes obtained immediately after the second sacrifice. (C) Spleen cells from long-standing arthritis model mice at first sacrifice. (D) Splenocytes obtained immediately after the second sacrifice. The intracellular levels of NF-κBp65 and IκBα cells were detected by flow cytometry. The results are representative of 6 mice analyzed in each group. The horizontal dotted line represents the average normal values obtained from mice (n=3) without CIA. Data represent mean±SEM. *p<0.05.

TNF-α = TNF-α gene expression in co-cultured tissues (RT-PCR); format: cell-based, human; details: vs control
Text: as §1
FIG. 8. Effect of type I polymerized collagen on the gene expression of pro- and anti-inflammatory cytokines and factors in the tissues of cartilage and synovial co-cultures of patients with Osteoarthritis (OA). (A) Quantification of IL-1β, INF-α, IL-6 and IL-10 gene expression, (B) IL-23 and Foxp3 by RT-PCR in co-cultured cartilage and synovial membrane tissues for 7 days. The bars show the mean±SD of the transcript levels of the samples normalized through the expression of the housekeeping gene GADPH determined by 2ΔΔCt. The data represent the mean±SD of 8 co-cultures from patients with OA. […]

[3] = severe to semi-critical disease
[4] = end of treatment and 7-day follow-up

Substance: collagen-polyvinylpyrrolidone [type I polymerized collagen]
- fever, alterations in heart rate, respiratory rate, headache and arthralgias (SARS-CoV2 (Covid-19) [1]; after 7 days): disappearance
- adverse effects (SARS-CoV2 (Covid-19) [1]; [3]): No adverse effects were detected, except for pain at the application site
- persistence of pain at the application site (SARS-CoV2 (Covid-19) [1]; [3]): 5 to 15 min
- transcription of IL-23 gene (IL-23): negatively regulated
- fever, changes in heart rate and odynophagia (SARS-CoV2 (Covid-19) [2]; after 7 days): disappearance
- patients in whom cough, myalgia, and loss of taste persisted (SARS-CoV2 (Covid-19) [2]; after 7 days): 40%
- patients persisting with alterations in respiratory rate, headache, anosmia, and arthralgia (SARS-CoV2 (Covid-19) [2]; after 7 days): 20%
- patients persisting with dyspnea (SARS-CoV2 (Covid-19) [2]; after 7 days): 60%
- patients with mild alterations in heart rate, cough and loss of the sense of taste (SARS-CoV2 (Covid-19) [2]; day 14, 7 days post-treatment): 20%
- the other symptoms (SARS-CoV2 (Covid-19) [2]; day 14, 7 days post-treatment): disappeared
- dyspnea and headache (SARS-CoV2 (Covid-19) [2]; [4]): disappeared in all patients
- oxygen requirement to maintain saturation >90% (SARS-CoV2 (Covid-19) [2]; [4]): none required oxygen
- acute respiratory failure syndrome or hospitalization (SARS-CoV2 (Covid-19) [2]; human, in vivo): None
- complications related to SARS-CoV2 infection or due to the use of collagen-PVP (SARS-CoV2 (Covid-19) [2]; human, in vivo): No complications
- death (SARS-CoV2 (Covid-19) [2]; human, in vivo): No patient died
- adverse effects (SARS-CoV2 (Covid-19) [2]; mild to moderate disease): No adverse effects were detected, except for pain at the application site
- persistence of pain at the application site (SARS-CoV2 (Covid-19) [2]; mild to moderate disease): 5 to 15 min
- clinical improvement (SARS-CoV2 (Covid-19) [2]; patients with Covid-19, intramuscular, all cases): In all cases there was a clinical improvement
- number of circulating Th2 cells (Th2 (CD4+/IL-4+) cells): modified
- negative regulation of the subpopulation of Th17 cells (Th17 (CD4+/IL-17+) cells): 1.5-2.0 ×
- percentage of NF-kB+ complexes with its inhibitor IκBα+ in splenocytes (NF-κB): increased to a statistically significant level
- gene expression of TNF-α (TNF-α; co-cultures from patients with OA): negative regulation
- transcription of TNF-α gene (TNF-α; co-cultures from patients with RA): negatively regulated
